Experimental data published in the kinase profiling compilation of Christmann-Franck et al. (2016).

Experiments:
Assay in all cases: KINOMEscan competition binding
Conditions in all cases: compound 10.0 µM
ADCK4 (human) = ADCK4 (human) (UniProt Q96D53)
AKT2 (human) = AKT2 (human) (UniProt P31751)
BRSK1 (human) = BRSK1 (human) (UniProt Q8TDC3)
CAMK2A (human) = CAMK2A (human) (UniProt Q9UQM7)
CDK8 (human) = CDK8 (human) (UniProt P49336)
CDKL1 (human) = CDKL1 (human) (UniProt Q00532)
CRK2 (P.falciparum) = CRK2 (P.falciparum) (UniProt P61075)
CSNK1E (human) = CSNK1E (human) (UniProt P49674)
CSNK1G2 (human) = CSNK1G2 (human) (UniProt P78368)
DYRK2 (human) = DYRK2 (human) (UniProt Q92630)
EPHA1 (human) = EPHA1 (human) (UniProt P21709)
EPHA7 (human) = EPHA7 (human) (UniProt Q15375)
EPHB1 (human) = EPHB1 (human) (UniProt P54762)
IRAK4 (human) = IRAK4 (human) (UniProt Q9NWZ3)
[1] = target: JAK3 JH1 catalytic (human) (UniProt P52333)
MAP3K9 (human) = MAP3K9 (human) (UniProt P80192)
MATK (human) = MATK (human) (UniProt P42679)
NEK2 (human) = NEK2 (human) (UniProt P51955)
NEK3 (human) = NEK3 (human) (UniProt P51956)
NLK (human) = NLK (human) (UniProt Q9UBE8)
PDGFRB (human) = PDGFRB (human) (UniProt P09619)
PIK3CA (human) = PIK3CA (human) (UniProt P42336)
PIK3CG (human) = PIK3CG (human) (UniProt P48736)
PIM2 (human) = PIM2 (human) (UniProt Q9P1W9)
PIP5K1C (human) = PIP5K1C (human) (UniProt O60331)
PRKG1 (human) = PRKG1 (human) (UniProt Q13976)
RET (human) = RET (human) (UniProt P07949)
RIPK4 (human) = RIPK4 (human) (UniProt P57078)
RPS6KA2 KD2 (human) = RPS6KA2 KD2 (human) (UniProt Q15349)
RPS6KA6 KD2 (human) = RPS6KA6 KD2 (human) (UniProt Q9UK32)
SBK1 (human) = SBK1 (human) (UniProt Q52WX2)
SIK1 (human) = SIK1 (human) (UniProt P57059)
SRPK3 (human) = SRPK3 (human) (UniProt Q9UPE1)
STK11 (human) = STK11 (human) (UniProt Q15831)
STK17A (human) = STK17A (human) (UniProt Q9UEE5)
TAOK3 (human) = TAOK3 (human) (UniProt Q9H2K8)
TESK1 (human) = TESK1 (human) (UniProt Q15569)
ULK2 (human) = ULK2 (human) (UniProt Q8IYT8)
ZAP70 (human) = ZAP70 (human) (UniProt P43403)

Chain of SBK1 (human) (Q52WX2 whole entry, looked up): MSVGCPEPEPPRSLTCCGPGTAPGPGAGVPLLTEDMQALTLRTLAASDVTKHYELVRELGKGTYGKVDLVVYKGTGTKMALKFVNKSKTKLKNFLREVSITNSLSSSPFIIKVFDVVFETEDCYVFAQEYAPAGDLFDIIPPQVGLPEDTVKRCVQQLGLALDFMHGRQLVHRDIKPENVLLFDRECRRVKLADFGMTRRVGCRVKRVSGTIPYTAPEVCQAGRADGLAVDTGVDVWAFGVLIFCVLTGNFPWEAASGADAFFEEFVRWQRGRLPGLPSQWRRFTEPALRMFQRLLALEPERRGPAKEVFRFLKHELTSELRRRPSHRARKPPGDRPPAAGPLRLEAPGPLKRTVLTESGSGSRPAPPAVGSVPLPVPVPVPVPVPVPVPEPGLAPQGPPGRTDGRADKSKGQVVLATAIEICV
Chain of RPS6KA6 KD2 (human) (Q9UK32 whole entry, looked up): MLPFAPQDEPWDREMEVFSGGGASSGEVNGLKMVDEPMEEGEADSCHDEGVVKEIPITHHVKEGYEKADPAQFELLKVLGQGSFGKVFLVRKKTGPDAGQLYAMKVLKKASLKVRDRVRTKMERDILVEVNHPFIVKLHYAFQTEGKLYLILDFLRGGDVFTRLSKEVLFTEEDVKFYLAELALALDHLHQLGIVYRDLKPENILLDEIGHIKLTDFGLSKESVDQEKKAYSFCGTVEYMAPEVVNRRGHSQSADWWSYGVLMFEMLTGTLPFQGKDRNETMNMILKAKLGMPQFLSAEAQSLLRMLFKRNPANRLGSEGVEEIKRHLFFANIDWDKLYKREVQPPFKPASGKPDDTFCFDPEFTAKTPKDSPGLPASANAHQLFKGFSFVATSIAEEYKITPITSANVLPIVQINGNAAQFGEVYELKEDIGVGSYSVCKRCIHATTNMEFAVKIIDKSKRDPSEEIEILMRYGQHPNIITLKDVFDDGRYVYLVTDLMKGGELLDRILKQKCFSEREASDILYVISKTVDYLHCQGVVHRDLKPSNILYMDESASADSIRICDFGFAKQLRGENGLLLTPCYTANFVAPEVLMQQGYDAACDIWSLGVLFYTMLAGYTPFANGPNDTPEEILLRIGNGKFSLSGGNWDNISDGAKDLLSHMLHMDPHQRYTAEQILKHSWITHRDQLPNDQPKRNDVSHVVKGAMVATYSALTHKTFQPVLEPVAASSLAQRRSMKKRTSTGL
Chain of MAP3K9 (human) (P80192 whole entry, looked up): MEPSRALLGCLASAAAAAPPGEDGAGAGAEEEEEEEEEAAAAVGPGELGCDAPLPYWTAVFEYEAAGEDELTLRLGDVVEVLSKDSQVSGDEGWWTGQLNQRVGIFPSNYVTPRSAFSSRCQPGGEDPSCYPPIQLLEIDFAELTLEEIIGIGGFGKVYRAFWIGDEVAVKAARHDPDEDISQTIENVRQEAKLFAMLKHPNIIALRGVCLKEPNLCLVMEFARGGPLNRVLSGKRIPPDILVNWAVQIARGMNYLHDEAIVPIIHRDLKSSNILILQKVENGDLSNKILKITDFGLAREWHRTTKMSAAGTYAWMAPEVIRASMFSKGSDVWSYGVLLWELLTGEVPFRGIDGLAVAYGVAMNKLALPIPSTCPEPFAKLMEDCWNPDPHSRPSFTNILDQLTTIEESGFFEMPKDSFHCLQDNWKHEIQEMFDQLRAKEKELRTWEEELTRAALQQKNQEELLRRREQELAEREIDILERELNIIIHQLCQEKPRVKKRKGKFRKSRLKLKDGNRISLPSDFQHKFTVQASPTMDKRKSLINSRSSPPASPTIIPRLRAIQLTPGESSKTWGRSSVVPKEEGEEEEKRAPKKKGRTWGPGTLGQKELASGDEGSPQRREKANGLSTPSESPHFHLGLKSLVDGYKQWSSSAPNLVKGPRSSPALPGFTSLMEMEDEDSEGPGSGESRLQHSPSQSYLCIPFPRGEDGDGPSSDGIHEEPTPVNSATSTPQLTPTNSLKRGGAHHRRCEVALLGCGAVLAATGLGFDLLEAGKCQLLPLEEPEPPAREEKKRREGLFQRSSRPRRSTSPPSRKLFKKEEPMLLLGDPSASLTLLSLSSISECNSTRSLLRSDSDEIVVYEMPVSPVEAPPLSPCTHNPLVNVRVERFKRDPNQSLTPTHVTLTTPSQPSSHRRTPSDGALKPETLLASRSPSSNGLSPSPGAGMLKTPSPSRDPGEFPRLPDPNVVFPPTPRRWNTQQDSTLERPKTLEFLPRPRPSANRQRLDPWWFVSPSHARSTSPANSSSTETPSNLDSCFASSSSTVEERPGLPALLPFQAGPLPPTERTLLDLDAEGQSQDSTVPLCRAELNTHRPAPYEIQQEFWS
Chain of CDKL1 (human) (Q00532 whole entry, looked up): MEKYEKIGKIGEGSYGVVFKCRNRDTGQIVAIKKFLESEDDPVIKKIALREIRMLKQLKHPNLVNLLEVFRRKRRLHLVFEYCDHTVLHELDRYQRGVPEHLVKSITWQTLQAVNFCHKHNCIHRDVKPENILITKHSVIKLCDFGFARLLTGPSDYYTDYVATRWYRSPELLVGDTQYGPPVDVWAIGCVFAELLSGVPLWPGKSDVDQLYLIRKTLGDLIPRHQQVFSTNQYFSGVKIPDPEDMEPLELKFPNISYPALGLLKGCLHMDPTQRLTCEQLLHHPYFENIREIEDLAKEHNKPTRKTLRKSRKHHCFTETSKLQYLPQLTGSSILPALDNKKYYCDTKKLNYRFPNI
Chain of PDGFRB (human) (P09619 whole entry, looked up): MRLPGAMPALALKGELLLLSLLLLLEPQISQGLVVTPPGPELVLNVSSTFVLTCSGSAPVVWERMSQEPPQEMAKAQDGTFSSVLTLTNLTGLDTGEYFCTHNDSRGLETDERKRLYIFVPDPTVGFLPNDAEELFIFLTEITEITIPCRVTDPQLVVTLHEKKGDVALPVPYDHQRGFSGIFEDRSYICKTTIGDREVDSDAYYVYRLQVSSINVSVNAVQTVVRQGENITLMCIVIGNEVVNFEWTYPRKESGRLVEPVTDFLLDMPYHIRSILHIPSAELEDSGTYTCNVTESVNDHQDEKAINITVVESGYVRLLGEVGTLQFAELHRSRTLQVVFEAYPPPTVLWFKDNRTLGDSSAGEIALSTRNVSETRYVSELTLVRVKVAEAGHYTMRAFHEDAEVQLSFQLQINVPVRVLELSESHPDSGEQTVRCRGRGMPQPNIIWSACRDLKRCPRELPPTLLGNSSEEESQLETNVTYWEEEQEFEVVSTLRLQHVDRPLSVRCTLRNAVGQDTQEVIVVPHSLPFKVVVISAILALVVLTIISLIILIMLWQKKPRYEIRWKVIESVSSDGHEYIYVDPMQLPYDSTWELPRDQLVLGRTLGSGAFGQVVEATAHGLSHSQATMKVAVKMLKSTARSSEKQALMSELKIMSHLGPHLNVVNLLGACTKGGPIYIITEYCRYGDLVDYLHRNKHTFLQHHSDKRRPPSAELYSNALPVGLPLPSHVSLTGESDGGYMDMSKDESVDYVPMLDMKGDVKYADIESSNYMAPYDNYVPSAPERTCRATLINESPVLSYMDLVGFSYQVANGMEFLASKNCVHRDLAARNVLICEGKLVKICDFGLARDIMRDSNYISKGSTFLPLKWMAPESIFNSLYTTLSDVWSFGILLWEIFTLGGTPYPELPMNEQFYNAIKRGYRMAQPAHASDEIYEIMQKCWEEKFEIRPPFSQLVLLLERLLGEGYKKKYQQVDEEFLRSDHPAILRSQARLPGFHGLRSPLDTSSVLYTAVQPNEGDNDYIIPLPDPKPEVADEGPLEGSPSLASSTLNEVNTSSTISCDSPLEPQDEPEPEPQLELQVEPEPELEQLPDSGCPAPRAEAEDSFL
Chain of TAOK3 (human) (Q9H2K8 whole entry, looked up): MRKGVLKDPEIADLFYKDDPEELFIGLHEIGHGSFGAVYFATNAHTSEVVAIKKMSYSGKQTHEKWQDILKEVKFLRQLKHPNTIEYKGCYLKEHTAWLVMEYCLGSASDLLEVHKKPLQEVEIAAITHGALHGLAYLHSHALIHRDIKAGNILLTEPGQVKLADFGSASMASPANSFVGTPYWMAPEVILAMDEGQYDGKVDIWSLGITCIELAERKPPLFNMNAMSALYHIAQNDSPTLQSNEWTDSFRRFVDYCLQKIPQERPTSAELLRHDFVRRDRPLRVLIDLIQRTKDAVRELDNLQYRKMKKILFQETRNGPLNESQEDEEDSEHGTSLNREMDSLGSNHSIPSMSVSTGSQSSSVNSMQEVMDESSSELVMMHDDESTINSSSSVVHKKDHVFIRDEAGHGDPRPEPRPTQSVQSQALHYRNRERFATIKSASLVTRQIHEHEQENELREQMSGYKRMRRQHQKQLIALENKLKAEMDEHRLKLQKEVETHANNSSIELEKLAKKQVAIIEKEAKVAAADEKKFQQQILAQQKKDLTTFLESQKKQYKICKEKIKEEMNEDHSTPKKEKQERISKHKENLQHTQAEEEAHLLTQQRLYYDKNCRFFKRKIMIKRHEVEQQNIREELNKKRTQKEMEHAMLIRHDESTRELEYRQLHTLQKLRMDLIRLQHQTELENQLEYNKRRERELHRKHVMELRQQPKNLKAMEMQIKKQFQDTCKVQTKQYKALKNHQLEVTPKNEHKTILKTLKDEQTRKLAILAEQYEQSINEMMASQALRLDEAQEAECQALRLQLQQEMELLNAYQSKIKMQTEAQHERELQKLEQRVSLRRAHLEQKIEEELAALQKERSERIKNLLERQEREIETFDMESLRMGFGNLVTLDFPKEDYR
Chain of PIM2 (human) (Q9P1W9 whole entry, looked up): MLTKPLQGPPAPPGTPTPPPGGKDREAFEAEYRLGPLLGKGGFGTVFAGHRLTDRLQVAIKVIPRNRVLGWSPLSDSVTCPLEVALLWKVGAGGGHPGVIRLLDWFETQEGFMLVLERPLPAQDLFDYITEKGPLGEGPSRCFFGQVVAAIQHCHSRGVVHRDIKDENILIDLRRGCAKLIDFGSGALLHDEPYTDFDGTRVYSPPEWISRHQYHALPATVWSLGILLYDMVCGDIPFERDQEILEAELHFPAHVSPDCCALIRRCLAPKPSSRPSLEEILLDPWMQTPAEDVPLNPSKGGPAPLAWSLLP

| Structure (SMILES) | kinase still bound, per cent of control (ADCK4 (human)) [%] | kinase still bound, per cent of control (AKT2 (human)) [%] | kinase still bound, per cent of control (BRSK1 (human)) [%] | kinase still bound, per cent of control (CAMK2A (human)) [%] | kinase still bound, per cent of control (CDK8 (human)) [%] | kinase still bound, per cent of control (CDKL1 (human)) [%] | kinase still bound, per cent of control (CRK2 (P.falciparum)) [%] | kinase still bound, per cent of control (CSNK1E (human)) [%] | kinase still bound, per cent of control (CSNK1G2 (human)) [%] | kinase still bound, per cent of control (DYRK2 (human)) [%] | kinase still bound, per cent of control (EPHA1 (human)) [%] | kinase still bound, per cent of control (EPHA7 (human)) [%] | kinase still bound, per cent of control (EPHB1 (human)) [%] | kinase still bound, per cent of control (IRAK4 (human)) [%] | kinase still bound, per cent of control [1] [%] | kinase still bound, per cent of control (MAP3K9 (human)) [%] | kinase still bound, per cent of control (MATK (human)) [%] | kinase still bound, per cent of control (NEK2 (human)) [%] | kinase still bound, per cent of control (NEK3 (human)) [%] | kinase still bound, per cent of control (NLK (human)) [%] | further results |
| --- | --- | --- | --- | --- | --- | --- | --- | --- | --- | --- | --- | --- | --- | --- | --- | --- | --- | --- | --- | --- | --- |
| NC(=O)Nc1cc(-c2cccc(F)c2)sc1C(=O)N[C@@H]1CCCNC1 | 55 | 60 | 4.9 | 3.6 | 71 | 46 | 100 | 11 | 0.95 | 26 | 1.4 | 0.1 | 1.6 | 0 | 0 | 0.15 | 34 | 75 | 43 | 81 | kinase still bound, per cent of control (PDGFRB (human)): 0%; kinase still bound, per cent of control (PIK3CA (human)): 100%; kinase still bound, per cent of control (PIK3CG (human)): 100%; kinase still bound, per cent of control (PIM2 (human)): 57%; kinase still bound, per cent of control (PIP5K1C (human)): 27%; kinase still bound, per cent of control (PRKG1 (human)): 0.8%; kinase still bound, per cent of control (RET (human)): 0%; kinase still bound, per cent of control (RIPK4 (human)): 0%; kinase still bound, per cent of control (RPS6KA2 KD2 (human)): 1.9%; kinase still bound, per cent of control (RPS6KA6 KD2 (human)): 1.2%; kinase still bound, per cent of control (SBK1 (human)): 0%; kinase still bound, per cent of control (SIK1 (human)): 0.3%; kinase still bound, per cent of control (SRPK3 (human)): 0.55%; kinase still bound, per cent of control (STK11 (human)): 4.8%; kinase still bound, per cent of control (STK17A (human)): 0.55%; kinase still bound, per cent of control (TAOK3 (human)): 2.9%; kinase still bound, per cent of control (TESK1 (human)): 11%; kinase still bound, per cent of control (ULK2 (human)): 0%; kinase still bound, per cent of control (ZAP70 (human)): 0% |
| C=CC(=O)Nc1cc(-n2c(=O)ccc3cnc4ccc(-c5cn[nH]c5)cc4c32)ccc1C | 86 | 87 | 82 | 21 | 93 | 33 | 100 | 88 | 94 | 0.6 | 94 | 99 | 94 | 36 | 0 | 86 | 100 | 100 | 77 | 63 | kinase still bound, per cent of control (PDGFRB (human)): 5.6%; kinase still bound, per cent of control (PIK3CA (human)): 24%; kinase still bound, per cent of control (PIK3CG (human)): 4.2%; kinase still bound, per cent of control (PIM2 (human)): 69%; kinase still bound, per cent of control (PIP5K1C (human)): 42%; kinase still bound, per cent of control (PRKG1 (human)): 91%; kinase still bound, per cent of control (RET (human)): 55%; kinase still bound, per cent of control (RIPK4 (human)): 67%; kinase still bound, per cent of control (RPS6KA2 KD2 (human)): 92%; kinase still bound, per cent of control (RPS6KA6 KD2 (human)): 67%; kinase still bound, per cent of control (SBK1 (human)): 90%; kinase still bound, per cent of control (SIK1 (human)): 77%; kinase still bound, per cent of control (SRPK3 (human)): 68%; kinase still bound, per cent of control (STK11 (human)): 100%; kinase still bound, per cent of control (STK17A (human)): 100%; kinase still bound, per cent of control (TAOK3 (human)): 47%; kinase still bound, per cent of control (TESK1 (human)): 54%; kinase still bound, per cent of control (ULK2 (human)): 81%; kinase still bound, per cent of control (ZAP70 (human)): 48% |
| CN(C)C/C=C/C(=O)Nc1ccc(C(=O)Nc2cccc(Nc3nccc(-c4cccnc4)n3)c2)cc1 | 98 | 100 | 100 | 54 | 78 | 41 | 100 | 56 | 100 | 29 | 76 | 100 | 100 | 34 | 10 | 78 | 91 | 1.1 | 17 | 82 | kinase still bound, per cent of control (PDGFRB (human)): 3.6%; kinase still bound, per cent of control (PIK3CA (human)): 100%; kinase still bound, per cent of control (PIK3CG (human)): 13%; kinase still bound, per cent of control (PIM2 (human)): 100%; kinase still bound, per cent of control (PIP5K1C (human)): 20%; kinase still bound, per cent of control (PRKG1 (human)): 100%; kinase still bound, per cent of control (RET (human)): 79%; kinase still bound, per cent of control (RIPK4 (human)): 33%; kinase still bound, per cent of control (RPS6KA2 KD2 (human)): 100%; kinase still bound, per cent of control (RPS6KA6 KD2 (human)): 97%; kinase still bound, per cent of control (SBK1 (human)): 100%; kinase still bound, per cent of control (SIK1 (human)): 100%; kinase still bound, per cent of control (SRPK3 (human)): 28%; kinase still bound, per cent of control (STK11 (human)): 83%; kinase still bound, per cent of control (STK17A (human)): 6.4%; kinase still bound, per cent of control (TAOK3 (human)): 37%; kinase still bound, per cent of control (TESK1 (human)): 74%; kinase still bound, per cent of control (ULK2 (human)): 99%; kinase still bound, per cent of control (ZAP70 (human)): 85% |
| O=C(Nc1cccc(Nc2ncc(Br)c(NCCc3cnc[nH]3)n2)c1)N1CCCC1 | 33 | 100 | 7.6 | 27 | 97 | 1.8 | 100 | 70 | 76 | 3.4 | 35 | 44 | 85 | 0 | 0 | 0.45 | 40 | 6.2 | 6.8 | 100 | kinase still bound, per cent of control (PDGFRB (human)): 0%; kinase still bound, per cent of control (PIK3CA (human)): 100%; kinase still bound, per cent of control (PIK3CG (human)): 58%; kinase still bound, per cent of control (PIM2 (human)): 100%; kinase still bound, per cent of control (PIP5K1C (human)): 22%; kinase still bound, per cent of control (PRKG1 (human)): 72%; kinase still bound, per cent of control (RET (human)): 0.1%; kinase still bound, per cent of control (RIPK4 (human)): 0.3%; kinase still bound, per cent of control (RPS6KA2 KD2 (human)): 4.8%; kinase still bound, per cent of control (RPS6KA6 KD2 (human)): 10%; kinase still bound, per cent of control (SBK1 (human)): 3.6%; kinase still bound, per cent of control (SIK1 (human)): 0.35%; kinase still bound, per cent of control (SRPK3 (human)): 6.2%; kinase still bound, per cent of control (STK11 (human)): 3.2%; kinase still bound, per cent of control (STK17A (human)): 0.2%; kinase still bound, per cent of control (TAOK3 (human)): 0.1%; kinase still bound, per cent of control (TESK1 (human)): 99%; kinase still bound, per cent of control (ULK2 (human)): 0.3%; kinase still bound, per cent of control (ZAP70 (human)): 7.1% |
